These results are taken from patent US10537725B2, “Ultrasound-assisted convection enhanced delivery of compounds in vivo with a transducer cannula assembly” (CORNELL UNIVERSITY, priority 2010, dated 2020).

This data set can be described thus: Evans blue dye volume distribution in rat brain after CED or ultrasound-assisted CED (UCED) infusion into the caudate. The class given is in vivo, Sprague-Dawley rats. As to conditions: for total distribution volume of EBD: 30 min. The procedure:
A total of 40 Sprague-Dawley rats (350 to 450 g) were divided into two equal groups and further divided into four equal subgroups (n=5 in each). The rats were anesthetized, secured into ear bars on a stereotaxic apparatus, and a craniotomy was performed. The caudate of the rat brain was infused with 0.25 wt % Evans blue dye (EBD) in Phosphate-Buffered Saline (PBS) at two different infusion rates of 0.25 μL/min for group 1, and 0.5 μL/min for group 2. […] Using the TCA without ultrasound, the four control subgroups were infused without and with microbubbles (CED and CED+MB). The four UCED subgroups (UCED and UCED+MB) followed the same protocol with the addition of simultaneous continuous wave 1.34 MHz ultrasound operating at a total acoustic power of 0.11+/−0.005 W and peak spatial intensity at the cannula tip of I=49.7 mW/cm^2. Frozen sectioning and histology were performed on the brains, and infusion distribution was three-dimensionally reconstructed using MatLab® analysis. Hematoxylin and Eosin (H&E) staining was used to assess tissue damage and morphological changes to the brain. The application of UCED and UCED+MB improved EBD total volumetric distribution by 2.24 to 3.25 and 1.16 to 1.70 times, respectively (p<0.001). On gross and histological examination, no ultrasound or microbubble related damage to the brain tissue was found. The TCA and battery-powered ultrasound device show promise to improve the distribution of infusate during CED in clinical practice.
Rats were anesthetized and euthanized by procedures approved by the Institutional Animal Care and Use Committee (IACUC) at Cornell University. A total of 40 Sprague-Dawley rats (350 to 450 g) were divided into two groups (designated Groups 1 and 2) with four subgroups (5 rats in each subgroup). Animals were anesthetized by inhalation of isoflurane gas and secured in a stereotaxic frame. The head was shaved, 0.5 ml of bupivicaine was applied under the skin as a local anesthetic and an incision was made in the skin along the dorsal midline of the skull. A small craniotomy (6-7 mm diameter) was made over the left side of the exposed skull using a dental drill. The TCA was guided using a micromanipulator to +0 mm anterior, +3 mm lateral and −5.5 mm ventral from bregma, lowered at 0.25 mm per second into the caudate of the rat brain and allowed to equilibrate for two minutes. 1-2 ml of artificial cerebral spinal fluid (aCSF) and a gel-foam dam was used to couple acoustic energy from the face of the TCA into the rodent brain. The TCA was powered on with the pocket-sized ultrasound system at the +/−11.1 V setting and infusion began.
For each rat, the entire experiment lasted a total of 30 min. The control subgroups of CED and CED+MB (n=5 in each) were infused using the TCA with no ultrasound therapy for 30 min. For the experimental subgroups of UCED and UCED+MB (n=5 in each), infusion and ultrasound exposure at an acoustic power of 0.11+/−0.005 W, and TCA face intensity of 0.095 W/cm^2 which corresponded to a cannula tip intensity of 0.0497 W/cm^2 for 30 min was applied simultaneously. Filtered Evan's blue dye (EBD) 0.25 wt % in phosphate buffered saline (PBS) without or with 5×10^5 stabilized microbubbles per μL with median diameter of 2.5 μm (Targestar™-P, Targeson Inc.) was infused using a microinfusion pump (Worker Bee™, Bioanalytical Systems, Inc.).
The starting infusion flow rate for the experiments of Group 1 was 0.05 μL/min for 5 min; the infusion flow rate was then increased to 0.1 μL/min for an additional 5 min, to a final flow rate of 0.25 μL/min for 20 min. The starting infusion flow rate of Group 2 was 0.1 μL/min for 5 min; the infusion flow rate was then increased to 0.25 μL/min for an additional 5 min, to a final flow rate of 0.5 μL/min for 20 min.
After 30 min of simultaneous infusion and ultrasound therapy the experiment was stopped. The TCA was left in the tissue for 1-2 min before being removed while euthanasia via cardiac urethane injection was performed. […]

Molecules are shown by their SMILES.

With `Cc1cc(-c2ccc(/N=N/c3ccc4c(S(=O)(=O)O)cc(S(=O)(=O)O)c(N)c4c3O)c(C)c2)ccc1/N=N/c1ccc2c(S(=O)(=O)O)cc(S(=O)(=O)O)c(N)c2c1O` [EBD, Evans blue dye], the “total distribution volume of EBD” value runs as follows: (group 1, 0.25 μL/min infusion, left caudate, CED) 13.6 mm^3; (group 1, 0.25 μL/min infusion, left caudate, CED+MB) 15.9 mm^3; (group 1, 0.25 μL/min infusion, left caudate, UCED) 33.1 mm^3; (group 1, 0.25 μL/min infusion, left caudate, UCED+MB) 27.0 mm^3; (group 1, 0.25 μL/min infusion, left hemisphere, CED (no ultrasound)) 20.6 mm^3; (group 1, 0.25 μL/min infusion, left hemisphere, CED+MB (microbubbles, no ultrasound)) 19.7 mm^3. Further, the “total distribution volume of EBD” value (group 1, 0.25 μL/min infusion, left hemisphere, UCED (1.34 MHz ultrasound)) amounted to 46.3 mm^3; the “total distribution volume of EBD” value (group 1, 0.25 μL/min infusion, left hemisphere, UCED+MB) was found to be 26.9 mm^3; the “total distribution volume of EBD” value (group 2, 0.5 μL/min infusion, left caudate, UCED) was 70.2 mm^3; the “total distribution volume of EBD” value (group 2, 0.5 μL/min infusion, left caudate, UCED+MB) is listed as 30.2 mm^3; the “total distribution volume of EBD” value (group 2, 0.5 μL/min infusion, left hemisphere, CED) came out at 37.4 mm^3; the “total distribution volume of EBD” value (group 2, 0.5 μL/min infusion, left hemisphere, CED+MB) was found to be 31.9 mm^3. For the same molecule, the “total distribution volume of EBD” value by setting is: (group 2, 0.5 μL/min infusion, left hemisphere, UCED) 111 mm^3; (group 2, 0.5 μL/min infusion, left hemisphere, UCED+MB) 37.1 mm^3. For the same molecule, the “increase of EBD distribution volume” value runs as follows: (group 1, 0.25 μL/min, left caudate, UCED compared to CED) 2.44 ×; (group 1, 0.25 μL/min, left caudate, UCED+MB compared to CED+MB) 1.7 ×; (group 1, 0.25 μL/min, left hemisphere, UCED compared to CED) 2.24 ×; (group 1, 0.25 μL/min, left hemisphere, UCED+MB compared to CED+MB) 1.37 ×; (group 2, 0.5 μL/min, left caudate, UCED compared to CED) 3.25 ×; (group 2, 0.5 μL/min, left caudate, UCED+MB compared to CED+MB) 1.54 ×. Further, the “increase of EBD distribution volume” value is 2.96 × (group 2, 0.5 μL/min, left hemisphere, UCED compared to CED) and 1.16 × (group 2, 0.5 μL/min, left hemisphere, UCED+MB compared to CED+MB).
